Experimental data reported in PMC7663184, “Vitamin B3-Based Biologically Active Compounds as Inhibitors of Human Cholinesterases” (International Journal of Molecular Sciences, 2020).
“Also recorded” adds a separate entry of the source.

Legend:
[1] = Cytotoxicity assay (MTS) on SH-SY5Y cells; format: cell-based; conditions: human; SH-SY5Y cells, MTS assay, 6.25–800 µM, mean of at least three experiments with standard error
Experimental: (§1) SH-SY5Y were grown in DMEM F12 (Sigma-Aldrich, Steinheim, Germany) supplemented with 15% (v/v) fetal bovine serum (Sigma-Aldrich, Steinheim, Germany), 1% (v/v) non-essential amino acids (NEAA, Sigma-Aldrich, Steinheim, Germany) and 1% (v/v) antibiotics solution Penicilin-Streptomycin (Sigma-Aldrich, Steinheim, Germany) while HEK293 were grown in EMEM (Sigma-Aldrich, Steinheim, Germany) supplemented with 10% (v/v) fetal bovine serum (Sigma-Aldrich, Steinheim, Germany), 1% (v/v) non-essential amino acids (NEAA, Sigma-Aldrich, Steinheim, Germany) and 1% (v/v) antibiotics solution Penicilin-Streptomycin (Sigma-Aldrich, Steinheim, Germany).
(§2) After cultivation, the cells were detached using 0.25% Trypsin/EDTA solution (Sigma-Aldrich, St. Louis, MO, USA), re-suspended and seeded at density of 20,000 cells/well in 96-well plates for experiments. The assay in 96-well was performed in 120 µL/well media volume. […] The procedure followed a previously described protocol and the manufacturer’s recommendations. […] Data was evaluated from at least two or three experiments (each in duplicate or triplicate) using IC50 nonlinear fit equation predefined in Prism6 software and presented as percentage of inhibition to control untreated cells.

human AChE = human AChE (Homo sapiens, UniProt P22303); test: AChE reversible inhibition (Ellman's method, Hunter–Downs evaluation); format: biochemical; conditions: for Ki: human erythrocyte AChE, ATCh substrate, 0.1 M sodium phosphate buffer pH 7.4, at least three experiments, read-out: Ki ± SE AChE; for Ki (AChE)/Ki (BChE): selectivity ratio of measured Ki values
human AChE, sequence (P22303 other isoform, or with tags, fused parts or gaps): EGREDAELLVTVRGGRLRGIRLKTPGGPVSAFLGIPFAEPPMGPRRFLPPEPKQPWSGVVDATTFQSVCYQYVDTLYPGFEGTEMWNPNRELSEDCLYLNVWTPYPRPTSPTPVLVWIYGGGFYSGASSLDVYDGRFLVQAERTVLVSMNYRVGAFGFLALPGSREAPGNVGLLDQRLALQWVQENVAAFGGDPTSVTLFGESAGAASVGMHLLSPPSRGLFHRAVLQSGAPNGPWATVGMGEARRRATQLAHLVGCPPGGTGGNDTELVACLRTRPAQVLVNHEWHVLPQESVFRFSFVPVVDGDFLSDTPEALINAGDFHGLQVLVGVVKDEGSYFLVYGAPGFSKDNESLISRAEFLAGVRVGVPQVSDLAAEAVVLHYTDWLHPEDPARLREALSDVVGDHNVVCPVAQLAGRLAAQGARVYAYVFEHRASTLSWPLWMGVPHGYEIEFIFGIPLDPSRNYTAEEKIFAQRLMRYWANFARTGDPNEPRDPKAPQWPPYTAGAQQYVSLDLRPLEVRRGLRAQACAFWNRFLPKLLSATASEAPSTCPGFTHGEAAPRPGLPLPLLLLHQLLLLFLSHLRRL
Source text: The determined BChE phenotype was UU (usual).

human BChE = human BChE (Homo sapiens, UniProt P06276); test: BChE reversible inhibition (Ellman's method, Hunter–Downs evaluation)
human BChE, sequence (P06276 29-602): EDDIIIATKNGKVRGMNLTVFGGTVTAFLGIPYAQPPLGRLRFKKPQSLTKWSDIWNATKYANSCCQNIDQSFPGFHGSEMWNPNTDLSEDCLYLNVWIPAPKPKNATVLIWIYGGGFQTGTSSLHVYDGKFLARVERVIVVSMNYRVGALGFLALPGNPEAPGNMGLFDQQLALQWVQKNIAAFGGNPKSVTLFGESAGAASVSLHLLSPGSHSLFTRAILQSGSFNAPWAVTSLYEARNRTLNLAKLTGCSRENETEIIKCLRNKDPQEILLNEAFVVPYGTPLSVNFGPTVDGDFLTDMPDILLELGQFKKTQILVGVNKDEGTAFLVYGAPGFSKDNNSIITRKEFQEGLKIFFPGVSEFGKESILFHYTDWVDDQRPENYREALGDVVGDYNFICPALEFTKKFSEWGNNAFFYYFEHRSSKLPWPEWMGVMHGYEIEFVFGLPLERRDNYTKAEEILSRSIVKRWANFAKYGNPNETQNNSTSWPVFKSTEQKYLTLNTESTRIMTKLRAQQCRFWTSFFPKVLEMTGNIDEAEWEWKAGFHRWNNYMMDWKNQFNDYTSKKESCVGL

[2] = Cytotoxicity assay (MTS) on HEK293 cells; format: cell-based
Experimental: as §1, §2

BChE = conditions: cited from earlier work
phospho-Akt (Ser473) = test: Intracellular signalling by Western blot: phospho-Akt; format: cell-based, human; conditions: serum-starved HEK293 cells, 100 μM, 10 or 30 min, vs. Basal
Experimental: (§3) Intracellular signalling in the presence of the selected nicotinamide derivative was evaluated on HEK293 cells. To enhance attachment of HEK293 cells, 12-well plates were aseptically pre-coated with poly-lysin (50 µg/mL, 0.5 mL/well). After 1-h incubation, the solution was removed, surface rinsed with sterile demineralized water and allowed to dry for 1 h. HEK293 cells were seeded at a density of 300,000 cells/well in DMEM (1 g/L glucose, Gibco, Paisley, UK) supplemented with 10% (v/v) FBS (Gibco, Paisley, UK) and 1% (v/v) Pen-Strep (Gibco, Paisley, UK). The next day (after 20 h) the medium was replaced with DMEM without additions. The cells were serum-starved for 4 h. During the last 10 and 30 min, the cells were treated with 100 μM 3, 4, 5 or 8. Basal (control) samples were treated with vehicle (DMSO) for 30 min. At the end of the experiment, cells were washed with ice-cold PBS and lysed in Laemmli buffer (62.5 mM Tris-HCl (pH 6.8), 2% (w/v) sodium dodecyl sulfate (SDS), 10% (w/v) glycerol, 5% (v/v) 2-mercaptoethanol, 0.002% (w/v) bromophenol blue). The proteins were resolved with SDS-PAGE (precasted 4–12% polyacrylamide gels, Bio-Rad, CA, USA) and transferred to the PVDF membrane (Merck Millipore, Darmstadt, Germany) with wet electrotransfer using Criterion system and Bis-Tris gradient gels (Bio-rad, CA, USA). After the transfer, the membranes were stained with Ponceau S (0.1% (w/v) in 5% (v/v) acetic acid) to evaluate uniformity of sample loading and efficiency of transfer. The membranes were then blocked with 7.5% (w/v) dry milk in Tris-buffered saline with Tween 20 (TBST: 20 mM Tris, 150 mM NaCl, 0.02% (v/v) Tween 20, pH 7.5) for 1 h at room temperature. After blocking, the membranes were incubated with the primary antibody in the primary antibody buffer (20 mM Tris, 150 mM NaCl, pH 7.5, 0.1% (w/v) BSA and 0.1% (w/v) sodium azide) overnight at 4 °C and then with the secondary antibody-horseradish peroxidase conjugate (Bio-Rad, CA, USA) in TBST with 5% (w/v) dry milk for 1 h at room temperature. Finally, the membranes were incubated with enhanced chemiluminescence (ECL) reagent (Bio-Rad, CA, USA) and then immunolabelled proteins were visualized on X-ray films. Films were scanned with GS-800 Densitometer (Bio-Rad, CA, USA) and analysed with Quantity One 1-D 4.6.8 Analysis Software (Bio-Rad, CA, USA). […] Target proteins were detected using primary antibodies against phospho-Akt (Ser473, Cell Signaling #4060, Netherlands) phospho-ERK1/2 (Thr202/Tyr204, Cell Signaling #4370, Netherlands), phospho-S6 ribosomal protein (Ser235/236, Cell Signaling #2211, Netherlands), phospho-AMPK (Thr172, Cell Signaling #2535, Netherlands), phospho-acetyl-CoA carboxylase (Ser79, Cell Signaling #3661, Netherlands) and HIF-1α (Novus Biologicals NB100–449, CO, USA).

SH-SY5Y cells = test: Cytotoxicity assay (MTS) on SH-SY5Y cells; format: cell-based; conditions: 1-, 4- and 24-h treatment
Experimental: as §1, §2

HIF-1α = test: Intracellular signalling by Western blot: HIF-1α abundance; format: cell-based, human; conditions: serum-starved HEK293 cells, 100 μM, 10 or 30 min, vs. Basal
Experimental: as §3

phospho-ACC (Ser79) = test: Intracellular signalling by Western blot: phospho-ACC; format: cell-based, human; conditions: serum-starved HEK293 cells, 100 μM, 10 or 30 min, vs. Basal
Experimental: as §3

[3] = system: phospho-ERK1/2 (Thr202/Tyr204); test: Intracellular signalling by Western blot: phospho-ERK1/2; format: cell-based, human; conditions: serum-starved HEK293 cells, 100 μM, 10 or 30 min, vs. Basal
Experimental: as §3

[4] = system: phospho-S6RP (Ser235/236); test: Intracellular signalling by Western blot: phospho-S6RP; format: cell-based, human; conditions: serum-starved HEK293 cells, 100 μM, 10 or 30 min, vs. Basal
Experimental: as §3

phospho-AMPK (Thr172) = test: Intracellular signalling by Western blot: phospho-AMPK; format: cell-based, human; conditions: serum-starved HEK293 cells, 100 μM, 10 or 30 min, vs. Basal
Experimental: as §3

HEK293 cells = test: Cytotoxicity assay (MTS) on HEK293 cells; format: cell-based; conditions: for time dependence of cytotoxicity on HEK293 cells: 1-, 4- and 24-h treatment
Experimental: as §1, §2

AChE [5] = conditions: ref [47]; cited from earlier work
AChE [6] = conditions: ratio of literature Ki values from [47], [48],[49]
[7] = human, HEK293 cells, MTS assay, 6.25–800 µM, mean of at least three experiments with standard error

SMILES | IC50 [1] | Ki (human AChE) | preference for binding to AChE over BChE (human AChE; selectivity from Ki values) | Ki (AChE)/Ki (BChE) (human AChE) | Ki (human BChE) | IC50 [2, 7] | IC50 (BChE; IC50 values per footnote 3, ref [50]) | phosphorylation of Akt (Ser473) (phospho-Akt (Ser473)) | time dependence of cytotoxicity on SH-SY5Y cells (SH-SY5Y cells) | abundance of HIF-1α (HIF-1α) | phosphorylation of ACC (Ser79) (phospho-ACC (Ser79)) | phosphorylation of ERK1/2 (Thr202/Tyr204) [3] | phosphorylation of S6RP (Ser235/236) [4] | phosphorylation of AMPK (Thr172) (phospho-AMPK (Thr172)) | time dependence of cytotoxicity on HEK293 cells (HEK293 cells) | IC50 ([2]; human; HEK293 cells, MTS assay, 6.25–800 µM, mean of at least three experiments with standard error) | Ki (BChE; ref [47]) | Ki (AChE [5]) | Ki (AChE)/Ki (BChE) (AChE [6]) | IC50 (HEK293 cells; HEK293 cells, MTS assay, 6.25–800 µM, mean of at least three experiments with standard error)
Cc1ccc(C(=O)C[n+]2cccc(C(N)=O)c2)cc1 [Compound 6] | ≥ 800 µM | 3 ± 1 µM | up to 80 times | 0.01 | 242 ± 22 µM | ≤ 800 µM | – | – | – | – | – | – | – | – | – | – | – | – | – | –
COc1ccc(C(=O)C[n+]2cccc(C(N)=O)c2)cc1 [Compound 7] | ≥ 800 µM | 19 ± 2 µM | – | 0.08 | 216 ± 34 µM | ≥ 800 µM | – | – | – | – | – | – | – | – | – | – | – | – | – | –
NC(=O)c1ccc[n+](CC(=O)c2ccccc2)c1 [Compound 1] | ≥ 800 µM | 79 ± 11 µM | – | 0.34 | 232 ± 20 µM | ≤ 800 µM | – | – | – | – | – | – | – | – | – | – | – | – | – | –
COc1ccccc1C(=O)C[n+]1cccc(C(N)=O)c1 [Compound 9] | ≥ 800 µM | 26 ± 4 µM | – | 0.14 | 180 ± 18 µM | ≥ 800 µM | – | – | – | – | – | – | – | – | – | – | – | – | – | –
NC(=O)c1ccc[n+](CC(=O)c2ccc([N+](=O)[O-])cc2)c1 [Compound 5] | 214 ± 5 µM | 39 ± 5 µM | – | 0.27 | 145 ± 24 µM | 417 ± 1 µM | – | markedly pronounced | time-dependent mechanism | unaltered | markedly increased | reached statistical significance; also recorded: marked increase | decreased | markedly increased | time-dependent mechanism | – | – | – | – | –
NC(=O)c1ccc[n+](CC(=O)c2ccc(-c3ccccc3)cc2)c1.[Br-] [Compound 8, 1-(4′-phenylphenacyl)-3-carbamoylpyridinium bromide] | 257 ± 1 µM | 4 ± 0.2 µM | – | 0.50 | – | – | – | markedly pronounced | time-dependent mechanism | increased | increased phosphorylation | reached statistical significance; also recorded: marked increase | unaltered | not significantly altered | – | 155 ± 1 µM | – | – | – | –
CCN(CC)C(C)CN1c2ccccc2Sc2ccccc21 (stereo not drawn) [Ethopropazine] | – | – | – | – | – | – | – | – | – | – | – | – | – | – | – | – | 0.16 µM | 161 µM | 1010 | –
NC(=O)c1ccc[n+](CC(=O)c2ccc(Br)cc2)c1 [Compound 4] | 501 ± 2 µM | 11 ± 3 µM | – | 0.23 | 47 ± 15 µM | ~85 µM | – | suppressing | time-dependent mechanism | increased | did not respond | tended to transiently increase | increased | did not respond | time-dependent mechanism | – | – | – | – | 83 ± 1 µM
NC(=O)c1ccc[n+](CC(=O)c2ccc(F)cc2)c1 [Compound 2] | ≥ 800 µM | 85 ± 15 µM | – | 0.14 | 595 ± 73 µM | ≥ 800 µM | – | – | – | – | – | – | – | – | – | – | – | – | – | –
NC(=O)c1ccc[n+](CC(=O)c2ccc(Cl)cc2)c1 [Compound 3] | ≤ 800 µM | 33 ± 5 µM | – | 0.15 | 224 ± 23 µM | ~85 µM | – | suppressing | time-dependent mechanism | not statistically significant | did not respond | tended to transiently increase | increased | did not respond | time-dependent mechanism | – | – | – | – | –
